Assay results as given in patent US20220207902A1, “SYSTEM AND METHOD FOR AUTOMATICALLY DISCOVERING, CHARACTERIZING, CLASSIFYING AND SEMI-AUTOMATICALLY LABELING ANIMAL BEHAVIOR AND QUANTITATIVE PHENOTYPING OF BEHAVIORS IN ANIMALS” (President and Fellows of Harvard College, priority 2012, published 2022).
Entries after “also recorded” stand apart in the source; their conditions may differ.

Key:
mice [1] = test: conventional two-compartment behavioral choice assay (odor-soaked filter paper); assay type: in vivo; settings: odors soaked into filter papers placed in the small compartment of a cage divided by a parafilm curtain; FIGS. 4A and 4B
Excerpt: (§1) FIGS. 4A-4E depict assessment of odor-driven innate behaviors in two and three dimensions. FIGS. 4A and B depict a conventional two-compartment behavioral choice assay. FIG. 4C, left, depicts a new behavioral arena. FIG. 4C, right, depicts a chart generated through use of custom-written Matlab code to track animal trajectories.
(§2) FIGS. 4A-4E depict the assessment of odor-driven innate behaviors in two and three dimensions. […] Odors are soaked into filter papers, which are placed in the small compartment of a cage divided by a parafilm curtain. This assay suffers from incomplete control of gas-phase odorant concentration, poorly defined spatial odor gradients and experimental variability due to the physical interaction of the animal with the odor source. The present inventors have therefore developed a new behavioral arena (FIG. 4C, left), in which odors are delivered to each of 4 corners in gas phase via high-performance computer-controlled Teflon valves.

mice [2] = test: odor quadrant arena, odors delivered in gas phase to one of four corners, animal tracked by 2D tracking or depth camera; assay type: in vivo
Excerpt: as §1, §2
Odors are delivered to one of four quadrants via computer-controlled olfactometers, which can deliver precisely timed pulses or square waves of odorants at defined concentrations. […]

Row | SMILES | innate behavioral response to odor (attraction or avoidance) (mice [1]) | posture (aspect ratio versus height) by depth camera (mice [2]; depth camera, compared with control conditions (stretched and low to the ground), FIG. 4E) | qualitative and quantitative avoidance behavior (mice [2]; odor delivered in gas phase in the upper right corner, FIG. 4D)
1 | Cc1cnc(C)cn1 [2,5-DMP] | avoidance | – | –
2 | CCCCCC(C)=O [2-heptanone] | avoidance | – | –
3 | CC1=NC(C)SC1C (stereo not shown) [TMT] | avoidance | become compressed (from the perspective of the overhead camera) and elevate their noses | avoidance behaviors that are extraordinarily robust and well controlled; also recorded: avoidance behavior
4 | CCCC(=O)O [butyric acid] | avoidance | – | –
5 | C=CCc1ccc(O)c(OC)c1 [eugenol] | robust innate behavioral attraction | – | –
